Measurements reported in patent US11407754B2, “Substituted piperidines as kinase inhibitors” (Daewoong Pharmaceutical Co., Ltd., priority 2017, dated 2022).

How the values were obtained:
[1] = tested on: JAK3; experiment: JAK3-mediated cell assay (HT-2/IL-2 assay), STAT5 phosphorylation; format: cell-based; conditions: HT2; STAT5 phosphorylation induced by IL-2 (20 ng/ml) in HT-2 cells, HTRF
Procedure: The inhibitory activities against JAK3 kinase at the cellular level were measured for the compounds prepared in the Examples through in vitro analysis of STAT5 phosphorylation induced by IL-2 stimulation in HT-2 cells. Specifically, STAT5 phosphorylation was analyzed using HTRF® phospho-STAT5 (Tyr694) assay kit (Cisbio, 64AT5PEG), which was purchased from Cisbio. HT-2 cells were cultured for 2 hours in growth factor-free medium. The cultured HT-2 cells were dispensed into 96-well plates by 50 ul so as to be a density of 2.5×10^5 cells/well. The compounds prepared in the previous Examples were prepared so as to be finally a 0.3% DMSO aqueous solution, and HT-2 cells was treated with the compounds for 30 minutes. After the compound treatment, IL-2 was prepared so as to be finally a concentration of 20 ng/ml, and HT-2 cells was treated for 10 minutes. The cells were then disrupted by treating lysis buffers for 30 minutes. The level of STAT5 phosphorylation was measured according to the instructions of HTRF® phospho-STAT5 assay kit, and the inhibitory activity of the compounds according to the invention was calculated. For the analysis of the results of each compound, Microsoft Excel was used, and IC50 values were calculated by SigmaPlot software.

[2] = target: human BTK (Homo sapiens (Human), UniProt Q06187); experiment: BTK kinase inhibitory activity, ADP Glo assay; conditions: read-out: BTK IC50, recombinant human BTK, ATP 10 uM
[3] = target: human JAK3 (Homo sapiens (Human), UniProt P52333); experiment: JAK3 kinase inhibitory activity, ADP Glo assay; conditions: read-out: JAK3 IC50, recombinant human JAK3, ATP 5 uM
human JAK3, sequence (P52333 whole entry): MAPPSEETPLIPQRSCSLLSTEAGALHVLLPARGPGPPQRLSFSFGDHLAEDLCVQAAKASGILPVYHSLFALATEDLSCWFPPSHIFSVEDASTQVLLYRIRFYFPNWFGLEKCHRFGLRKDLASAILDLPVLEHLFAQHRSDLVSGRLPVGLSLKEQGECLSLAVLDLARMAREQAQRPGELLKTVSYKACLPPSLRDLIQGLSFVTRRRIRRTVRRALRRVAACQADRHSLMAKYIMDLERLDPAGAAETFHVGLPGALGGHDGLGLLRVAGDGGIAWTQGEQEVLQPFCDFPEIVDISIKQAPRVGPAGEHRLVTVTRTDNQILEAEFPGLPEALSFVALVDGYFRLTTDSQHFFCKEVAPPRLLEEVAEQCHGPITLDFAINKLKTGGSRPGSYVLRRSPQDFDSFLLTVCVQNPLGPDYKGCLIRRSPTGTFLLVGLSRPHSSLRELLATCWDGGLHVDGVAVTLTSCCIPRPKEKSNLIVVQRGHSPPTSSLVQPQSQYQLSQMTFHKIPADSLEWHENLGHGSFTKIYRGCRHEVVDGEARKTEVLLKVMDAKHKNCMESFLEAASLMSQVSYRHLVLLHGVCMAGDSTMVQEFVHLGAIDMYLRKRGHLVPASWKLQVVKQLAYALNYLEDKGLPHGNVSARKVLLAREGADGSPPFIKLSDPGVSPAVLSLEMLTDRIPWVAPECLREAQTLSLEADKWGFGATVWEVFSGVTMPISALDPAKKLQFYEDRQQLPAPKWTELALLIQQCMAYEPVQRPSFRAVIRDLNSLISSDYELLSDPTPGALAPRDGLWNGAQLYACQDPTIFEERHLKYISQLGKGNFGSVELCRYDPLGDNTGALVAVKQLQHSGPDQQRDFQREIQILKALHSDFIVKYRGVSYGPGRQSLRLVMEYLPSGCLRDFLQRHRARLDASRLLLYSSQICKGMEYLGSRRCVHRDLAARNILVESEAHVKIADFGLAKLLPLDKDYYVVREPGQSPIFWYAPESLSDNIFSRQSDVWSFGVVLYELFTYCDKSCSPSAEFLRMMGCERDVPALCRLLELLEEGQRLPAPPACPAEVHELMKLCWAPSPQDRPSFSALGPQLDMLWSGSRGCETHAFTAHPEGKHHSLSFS

human BTK, sequence (Q06187 whole entry): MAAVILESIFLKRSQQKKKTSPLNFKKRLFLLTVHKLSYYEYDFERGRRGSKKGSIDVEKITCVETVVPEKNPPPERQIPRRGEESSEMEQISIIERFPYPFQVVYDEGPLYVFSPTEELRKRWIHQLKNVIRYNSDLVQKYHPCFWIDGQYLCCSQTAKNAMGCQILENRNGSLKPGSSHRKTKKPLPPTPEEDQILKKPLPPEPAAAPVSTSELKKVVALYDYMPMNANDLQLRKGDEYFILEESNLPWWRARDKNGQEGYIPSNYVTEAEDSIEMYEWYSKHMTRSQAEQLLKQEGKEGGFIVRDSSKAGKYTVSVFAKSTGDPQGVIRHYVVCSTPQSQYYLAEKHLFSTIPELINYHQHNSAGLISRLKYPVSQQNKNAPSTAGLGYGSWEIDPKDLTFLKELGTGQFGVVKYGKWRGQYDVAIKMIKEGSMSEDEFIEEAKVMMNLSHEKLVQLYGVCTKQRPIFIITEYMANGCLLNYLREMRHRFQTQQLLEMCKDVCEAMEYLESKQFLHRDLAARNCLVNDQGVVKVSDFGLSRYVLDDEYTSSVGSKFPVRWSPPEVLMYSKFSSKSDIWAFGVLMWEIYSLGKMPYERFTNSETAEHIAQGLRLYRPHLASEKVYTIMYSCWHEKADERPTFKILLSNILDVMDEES

Row | SMILES | IC50 [1] | IC50 [2] | IC50 [3]
1 | C=CC(=O)N1C[C@H](Nc2nc(Nc3cnn(CC(C)C)c3)nc3[nH]ccc23)CC[C@@H]1C [Example 3, 1-((2S,5R)-5-((2-((1-isobutyl-1H-pyrazol-4-yl)amino)-7H-pyrrolo[2,3-d]pyrimidin-4-yl)amino)-2-methylpiperidin-1-yl)prop-2-en-1-one] | – | 3.5 nM | 1.8 nM
2 | C=CC(=O)N1C[C@H](Nc2nc(Nc3cnn(CCNC(=O)OC(C)(C)C)c3)nc3[nH]ccc23)CC[C@@H]1C [Example 5] | – | 5.3 nM | 1.2 nM
3 | C=CC(=O)N1C[C@H](Nc2nc(Nc3cnsc3)nc3[nH]cc(Cl)c23)CC[C@@H]1C [Example 6] | – | 3.4 nM | 0.6 nM
4 | C=CC(=O)N1C[C@H](Nc2nc(Nc3cnn(CC(F)F)c3)nc3[nH]cc(Cl)c23)CC[C@@H]1C [Example 7, 1-((2S,5R)-5-((5-chloro-2-((1-(2,2-difluoroethyl)-1H-pyrazol-4-yl)amino)-7H-pyrrolo[2,3-d]pyrimidin-4-yl)amino)-2-methylpiperidin-1-yl)prop-2-en-1-one] | – | 1.6 nM | 0.3 nM
5 | C=CC(=O)N1C[C@H](N(C)c2nc(Nc3cnn(CC)c3)nc3[nH]nc(Cl)c23)CC[C@@H]1C [Example 11, 1-((2S,5R)-5-((3-chloro-6-((1-ethyl-1H-pyrazol-4-yl)amino)-1H-pyrazolo[3,4-d]pyrimidin-4-yl)(methyl)amino)-2-methylpiperidin-1-yl)prop-2-en-1-one] | – | 0.9 nM | 5.7 nM

The remaining compounds from weak to strong by IC50 [2], led by results:

Row | IC50 [1] | IC50 [2] | IC50 [3] | SMILES
6 | – | 5.4 nM | 2.2 nM | C=CC(=O)N1C[C@H](Nc2nc(Nc3cnn(C4CCCC4)c3)nc3[nH]ccc23)CC[C@@H]1C [Example 4, 1-((2S,5R)-5-((2-((1-cyclopentyl-1H-pyrazol-4-yl)amino)-7H-pyrrolo[2,3-d]pyrimidin-4-yl)amino)-2-methylpiperidin-1-yl)prop-2-en-1-one]
7 | – | 2 nM | 0.3 nM | C=CC(=O)N1C[C@H](Nc2nc(Nc3cnn(C4CC4)c3)nc3[nH]cc(Cl)c23)CC[C@@H]1C [Example 9, 1-((2S,5R)-5-((5-chloro-2-((1-cyclopropyl-1H-pyrazol-4-yl)amino)-7H-pyrrolo[2,3-d]pyrimidin-4-yl)amino)-2-methylpiperidin-1-yl)prop-2-en-1-one]
8 | 360 nM | 1.3 nM | 0.4 nM | C=CC(=O)N1C[C@H](Nc2nc(Nc3cnn(CC)c3)nc3[nH]ccc23)CC[C@@H]1C [Example 2, 1-((2S,5R)-5-((2-((1-ethyl-1H-pyrazol-4-yl)amino)-7H-pyrrolo[2,3-d]pyrimidin-4-yl)amino)-2-methylpiperidin-1-yl)prop-2-en-1-one]
9 | 90.9 nM | 1.2 nM | 0.3 nM | C=CC(=O)N1C[C@H](Nc2nc(Nc3cnn(CC)c3)nc3[nH]cc(Cl)c23)CC[C@@H]1C [Example 1, 1-((2S,5R)-5-((5-chloro-2-((1-ethyl-1H-pyrazol-4-yl)amino)-7H-pyrrolo[2,3-d]pyrimidin-4-yl)amino)-2-methylpiperidin-1-yl)prop-2-en-1-one]
